Article PMC6803848, “Exploring New Structural Features of the 18β-Glycyrrhetinic Acid Scaffold for the Inhibition of Anaplastic Lymphoma Kinase” (Molecules, 2019)

Columns and labels:
A549 = test: MTT antiproliferative assay, A549 cells; type: cell-based; details: Homo sapiens, 48 h, MTT, read-out: Antiproliferative activity (growth inhibition, %); for inhibition at 2 µg/mL: A549, 2 μg/mL; for inhibition at 20 µg/mL: A549, 20 μg/mL
Procedure: (§1) All the cells were seeded in 96-well plates and incubated with 5% CO2 at 37 °C for 24 h. Next, the compounds and the reference were dissolved into the culture medium. The final concentration of DMSO in the medium was less than 0.5%. After the cells were treated with compounds for 48 h, the supernatant was removed and 5 mg/mL of a fresh prepared solution of MTT was added to each well and incubated with the cells at 37 °C for another 4 h. The medium was removed, and 100 μL of testing solution was added to each well. After an overnight incubation with 5% CO2 at 37 °C, the absorbance was measured at 490/630 nm by the microplate reader. The IC50 was calculated using GraphPad Prism version 6.0 software (San Diego, CA, USA) from the non-linear curve.

HT29 = test: MTT antiproliferative assay, HT29 cells; type: cell-based; details: Homo sapiens, HT-29, 48 h, MTT, read-out: Antiproliferative activity (growth inhibition, %); for inhibition at 2 µg/mL: HT29, 2 μg/mL; for inhibition at 20 µg/mL: HT29, 20 μg/mL
Procedure: as §1

SMILES	melting point [°C]	inhibition at 2 µg/mL (A549) [%]	inhibition at 20 µg/mL (A549) [%]	inhibition at 2 µg/mL (HT29) [%]	inhibition at 20 µg/mL (HT29) [%]
CC1(C)C2CC[C@]3(C)[C@H](C(=O)C=C4[C@@H]5C[C@@](C)(C(=O)N6CCOCC6)CC[C@]5(C)CC[C@]43C)[C@@]2(C)CC[C@@H]1OC(=O)Nc1cc(Cl)cc(Cl)c1 (stereo partly drawn) [4c, 3β-(((3,5-dichlorophenyl)carbamoyl)oxy)-30-morpholino-olean-12-ene-11,30-dione]	278.2 to 280.3	0	0	7.41	2.76
CC1(C)C2CC[C@]3(C)[C@H](C(=O)C=C4[C@@H]5C[C@@](C)(C(=O)O)CC[C@]5(C)CC[C@]43C)[C@@]2(C)CC[C@@H]1OC(=O)Nc1ccc(C(F)(F)F)cc1 (stereo partly drawn) [3i, 3β-(((4-(trifluoromethyl)phenyl)carbamoyl)oxy)-11-oxo-olean-12-en-30-oic acid]	242.1 to 242.9	15.9	87.5	19.4	90.1
CN1CCN(CC(=O)O[C@H]2CC[C@@]3(C)C(CC[C@]4(C)[C@@H]3C(=O)C=C3[C@@H]5C[C@@](C)(C(=O)O)CC[C@]5(C)CC[C@]34C)C2(C)C)CC1 (stereo partly drawn) [6c, 3β-(2-(4-methylpiperazin-1-yl)acetoxy)-11-oxo-olean-12-en-30-oic acid]	287.5 to 288.9	0	0	0	0
CC1(C)C2CC[C@]3(C)[C@H](C(=O)C=C4[C@@H]5C[C@@](C)(C(=O)O)CC[C@]5(C)CC[C@]43C)[C@@]2(C)CC[C@@H]1OC(=O)CN1CCN(c2ccccn2)CC1 (stereo partly drawn) [6d, 3β-(2-(4-(pyridin-2-yl)piperazin-1-yl)acetoxy)-11-oxo-olean-12-en-30-oic acid]	294 to 295.6	0	0	0	0
CC1(C)C2CC[C@]3(C)[C@H](C(=O)C=C4[C@@H]5C[C@@](C)(C(=O)O)CC[C@]5(C)CC[C@]43C)[C@@]2(C)CC[C@@H]1OC(=O)Cc1ccc(F)cc1 (stereo partly drawn) [7b, 3β-(2-(4-fluorophenyl)acetoxy)-11-oxo-olean-12-en-30-oic acid]	305 to 307.7	15.3	31.2	44.1	59
CC1(C(=O)N2CCOCC2)CCC2(C)CCC3(C)C(=CC(=O)C4C5(C)CCC(OC(=O)Nc6ccc(Br)cc6)C(C)(C)C5CCC43C)C2C1 (stereo not drawn) [4g, 3β-(((4-bromophenyl)carbamoyl)oxy)-30-morpholino-olean-12-ene-11,30-dione]		0	1.02	14.3	27.1
Cc1ccc(NC(=O)O[C@H]2CC[C@@]3(C)C(CC[C@]4(C)[C@@H]3C(=O)C=C3[C@@H]5C[C@@](C)(C(=O)O)CC[C@]5(C)CC[C@]34C)C2(C)C)cc1Cl (stereo partly drawn) [3f, 3β-(((3-chloro-4-methylphenyl)carbamoyl)oxy)-11-oxo-olean-12-en-30-oic acid]	270.7 to 271.6	11.4	80.2	15.6	89.2
CC1(C(=O)O)CCC2(C)CCC3(C)C(=CC(=O)C4C5(C)CCC(OC(=O)Cc6ccc(Cl)cc6)C(C)(C)C5CCC43C)C2C1 (stereo not drawn) [7a, 3β-(2-(4-chlorophenyl)acetoxy)-11-oxo-olean-12-en-30-oic acid]	312 to 312.7	11.3	27.4	33.3	57.5

Second part, led by results:

melting point [°C]	SMILES	inhibition at 2 µg/mL (A549) [%]	inhibition at 20 µg/mL (A549) [%]	inhibition at 2 µg/mL (HT29) [%]	inhibition at 20 µg/mL (HT29) [%]
267.9 to 268.9	CC1(C)C2CC[C@]3(C)[C@H](C(=O)C=C4[C@@H]5C[C@@](C)(C(=O)O)CC[C@]5(C)CC[C@]43C)[C@@]2(C)CC[C@@H]1OC(=O)Nc1ccc(F)cc1 (stereo partly drawn) [3h, 3β-(((4-fluorophenyl)carbamoyl)oxy)-11-oxo-olean-12-en-30-oic acid]	34.4	56.7	11.8	58.6
296.4 to 298	CC1(C)C2CC[C@]3(C)[C@H](C(=O)C=C4[C@@H]5C[C@@](C)(C(=O)N6CCOCC6)CC[C@]5(C)CC[C@]43C)[C@@]2(C)CC[C@@H]1OC(=O)Nc1ccc(C(F)(F)F)cc1 (stereo partly drawn) [4i, 3β-(((4-(trifluoromethyl)phenyl)carbamoyl)oxy)-30-morpholino-olean-12-ene-11,30-dione]	0	4.46	13.7	27.3
308 to 310.1	CC1(C(=O)N2CCOCC2)CCC2(C)CCC3(C)C(=CC(=O)C4C5(C)CCC(OC(=O)Nc6ccc(OC(F)(F)F)cc6)C(C)(C)C5CCC43C)C2C1 (stereo not drawn) [4n, 3β-(((4-(trifluoromethoxy)phenyl)carbamoyl)oxy)-30-morpholino-olean-12-ene-11,30-dione]	0	0	7.12	40.2
313.4 to 314.7	CC1(C)C2CC[C@]3(C)[C@H](C(=O)C=C4[C@@H]5C[C@@](C)(C(=O)N6CCOCC6)CC[C@]5(C)CC[C@]43C)[C@@]2(C)CC[C@@H]1OC(=O)Nc1cc(C(F)(F)F)cc(C(F)(F)F)c1 (stereo partly drawn) [4k, 3β-(((3,5-bis(trifluoromethyl)phenyl)carbamoyl)oxy)-30-morpholino-olean-12-ene-11,30-dione]	4.47	0	13	14.9
295 to 296.7	CC1(C(=O)N2CCOCC2)CCC2(C)CCC3(C)C(=CC(=O)C4C5(C)CCC(OC(=O)Nc6cccc(C(F)(F)F)c6)C(C)(C)C5CCC43C)C2C1 (stereo not drawn) [4j, 3β-(((3-(trifluoromethyl)phenyl)carbamoyl)oxy)-30-morpholino-olean-12-ene-11,30-dione]	0	0	20.3	36.4
259.5 to 261.1	COc1cccc(NC(=O)O[C@H]2CC[C@@]3(C)C(CC[C@]4(C)[C@@H]3C(=O)C=C3[C@@H]5C[C@@](C)(C(=O)O)CC[C@]5(C)CC[C@]34C)C2(C)C)c1 (stereo partly drawn) [3l, 3β-(((3-methoxyphenyl)carbamoyl)oxy)-11-oxo-olean-12-en-30-oic acid]	9.74	53.7	6.06	47.4
305 to 306.8	COc1cccc(NC(=O)O[C@H]2CC[C@@]3(C)C(CC[C@]4(C)[C@@H]3C(=O)C=C3[C@@H]5C[C@@](C)(C(=O)N6CCOCC6)CC[C@]5(C)CC[C@]34C)C2(C)C)c1 (stereo partly drawn) [4l, 3β-(((3-methoxyphenyl)carbamoyl)oxy)-30-morpholino-olean-12-ene-11,30-dione]	0	0	13.6	16.6
293.7 to 295.6	Cc1ccc(NC(=O)O[C@H]2CC[C@@]3(C)C(CC[C@]4(C)[C@@H]3C(=O)C=C3[C@@H]5C[C@@](C)(C(=O)N6CCOCC6)CC[C@]5(C)CC[C@]34C)C2(C)C)cc1Cl (stereo partly drawn) [4f, 3β-(((3-chloro-4-methylphenyl)carbamoyl)oxy)-30-morpholino-olean-12-ene-11,30-dione]	0	0	7.1	18.4
263 to 265	CC1(C)C2CC[C@]3(C)[C@H](C(=O)C=C4[C@@H]5C[C@@](C)(C(=O)O)CC[C@]5(C)CC[C@]43C)[C@@]2(C)CC[C@@H]1OC(=O)Nc1ccc(Br)cc1 (stereo partly drawn) [3g, 3β-(((4-bromophenyl)carbamoyl)oxy)-11-oxo-olean-12-en-30-oic acid]	9.72	63.4	18.6	76.5
305 to 306.7	COc1ccc(NC(=O)O[C@H]2CC[C@@]3(C)C(CC[C@]4(C)[C@@H]3C(=O)C=C3[C@@H]5C[C@@](C)(C(=O)N6CCOCC6)CC[C@]5(C)CC[C@]34C)C2(C)C)cc1 (stereo partly drawn) [4m, 3β-(((4-methoxyphenyl)carbamoyl)oxy)-30-morpholino-olean-12-ene-11,30-dione]	0	8.11	15.7	23.2
209.5 to 211.1	CC1(C)C2CC[C@]3(C)[C@H](C(=O)C=C4[C@@H]5C[C@@](C)(C(=O)N6CCOCC6)CC[C@]5(C)CC[C@]43C)[C@@]2(C)CC[C@@H]1OC(=O)Nc1ccc(Cl)c(C(F)(F)F)c1 (stereo partly drawn) [4b, 3β-(((4-chloro-3-(trifluoromethyl)phenyl)carbamoyl)oxy)-30-morpholino-olean-12-ene-11,30-dione]	0	0	14.4	32.8
298.4 to 299.7	CC1(C(=O)N2CCOCC2)CCC2(C)CCC3(C)C(=CC(=O)C4C5(C)CCC(OC(=O)Nc6ccc(Cl)cc6)C(C)(C)C5CCC43C)C2C1 (stereo not drawn) [4d, 3β-(((4-chlorophenyl)carbamoyl)oxy)-30-morpholino-olean-12-ene-11,30-dione]	0	54.4	16.3	53.7
